From the supplement of paper PMC12317010 come the findings set out here.

Structures are written as SMILES. Where a name gives a salt, the structure may show the parent alone.

This data set is described as follows: collision cross section in nitrogen (drift tube, single-field); higher = larger gas-phase ion size.
Setting [1] is: ion type: [M+H], ion source: APCI, ion mode: Positive.
Setting [2] is: ion type: [M+Na], ion source: ESI, ion mode: Positive.
The mark [3] stands for this setting: ion type: [M-H], ion source: ESI, ion mode: Negative.
Where [4] appears, read: ion type: [M+H], ion source: ESI, ion mode: Positive.
[5] abbreviates: ion source: ESI, ion mode: Positive, ion type: [M]+ (permanent cation).
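Further: chemical standards at 10 µM analysed by drift tube IMS-QTOF MS in about 3.95 torr nitrogen, mean of duplicate injections differing ≤1%, mass error below 10 ppm.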

Consider `CC(=O)[C@@]1(O)CC[C@H]2[C@@H]3C[C@H](C)C4=CC(=O)C=C[C@]4(C)[C@@]3(F)[C@@H](O)C[C@@]21C` [Fluorometholone], for which the “collision cross section in nitrogen” value reads like this: under setting [1], 186.6 Å²; under setting [2], 211.3 Å².
Turning to `O=C(Nc1cccc(C(F)(F)F)c1)c1cc(Br)cc(Br)c1O` [Fluorosalan], the “collision cross section in nitrogen” value under setting [3] came to 175.5 Å².
`CO/N=C(/C1=NOCCO1)c1ccccc1Oc1ncnc(Oc2ccccc2Cl)c1F` [Fluoxastrobin]: the “collision cross section in nitrogen” value reads like this: under setting [1], 204.8 Å²; under setting [4], 204.3 Å²; under setting [2], 208.1 Å².
In the case of `CC1(C)O[C@@H]2C[C@H]3[C@@H]4C[C@H](F)C5=CC(=O)CC[C@]5(C)[C@H]4[C@@H](O)C[C@]3(C)[C@]2(C(=O)CO)O1` [Flurandrenolide], the “collision cross section in nitrogen” value runs as follows: under setting [4], 186.9 Å²; under setting [3], 201.8 Å².
`CCCCCCC(C)OC(=O)COc1nc(F)c(Cl)c(N)c1Cl` (stereo unspecified) [Fluroxypyr-meptyl]: the “collision cross section in nitrogen” value under setting [2] is reported as 194.3 Å² and the “collision cross section in nitrogen” value under setting [3] came to 176.2 Å².
As for `Nc1c(Cl)c(F)nc(OCC(=O)O)c1Cl` [Fluroxypyr], the “collision cross section in nitrogen” value under setting [3] worked out at 141.3 Å².
For the compound `C[Si](Cn1cncn1)(c1ccc(F)cc1)c1ccc(F)cc1` [Flusilazole], the “collision cross section in nitrogen” value worked out at 176.6 Å² under setting [1] and 174.9 Å² under setting [4].
As for `CC(C)C(=O)Nc1ccc([N+](=O)[O-])c(C(F)(F)F)c1` [Flutamide], under setting [3], the “collision cross section in nitrogen” value is reported as 154.9 Å².
On to `CC(C)Oc1cccc(NC(=O)c2ccccc2C(F)(F)F)c1` [Flutolanil], for which the “collision cross section in nitrogen” value was 173.1 Å² under setting [1], 172.7 Å² under setting [4], 183.5 Å² under setting [2] and 176.1 Å² under setting [3].
For the compound `OC(Cn1cncn1)(c1ccc(F)cc1)c1ccccc1F` (stereo unspecified) [Flutriafol], the “collision cross section in nitrogen” value is 167.5 Å² under setting [4] and 183.1 Å² under setting [2].
For `CC(C)n1c(/C=C/[C@H](O)C[C@H](O)CC(=O)O)c(-c2ccc(F)cc2)c2ccccc21` [Fluvastatin], the “collision cross section in nitrogen” value under setting [3] is recorded as 200 Å².
Regarding `O=C(Nc1ccccc1)Nc1ccnc(Cl)c1` [Forchlorfenuron], the “collision cross section in nitrogen” value by setting is: under setting [1], 156.5 Å²; under setting [4], 156.9 Å²; under setting [3], 155.2 Å².
Consider `CNC(=O)Oc1cccc(N=CN(C)C)c1` [Formetanate hydrochloride], for which the “collision cross section in nitrogen” value under setting [4] is 156 Å².
Take `COc1ccc(-c2coc3cc(O)ccc3c2=O)cc1` [Formononetin]: the “collision cross section in nitrogen” value under setting [1] is on record as 159.8 Å²; the “collision cross section in nitrogen” value under setting [4] came out at 160.3 Å²; the “collision cross section in nitrogen” value under setting [2] was determined as 171.4 Å²; the “collision cross section in nitrogen” value (ion type: [M+], ion source: APCI, ion mode: Positive) was found to be 156.9 Å².
Regarding `C=C[C@@]1(C)CC(=O)[C@]2(O)[C@@]3(C)[C@@H](O)CCC(C)(C)[C@@H]3[C@H](O)[C@H](OC(C)=O)[C@@]2(C)O1` [Forskolin], the “collision cross section in nitrogen” value under setting [2] turned out to be 194.3 Å².
Same read-out and setting: the figure for `CCOP(=O)(SC(C)CC)N1CCSC1=O` (stereo unspecified) [Fosthiazate] is 168.2 Å².
On to `c1coc(-c2nc3ccccc3[nH]2)c1` [Fuberidazole], for which the “collision cross section in nitrogen” value was 136.1 Å² under setting [1], 136.8 Å² under setting [4] and 138 Å² under setting [3].
With `C[C@]12CC[C@@H]3c4ccc(O)cc4C[C@@H](CCCCCCCCCS(=O)CCCC(F)(F)C(F)(F)F)[C@H]3[C@@H]1CC[C@@H]2O` (stereo partly specified) [Fulvestrant], the “collision cross section in nitrogen” value is 243.5 Å² under setting [1], 242.9 Å² under setting [4], 247.6 Å² under setting [2] and 246.5 Å² under setting [3].
`COC(=O)C(C)N(C(=O)c1ccco1)c1c(C)cccc1C` (stereo unspecified) [Furalaxyl]: the “collision cross section in nitrogen” value by setting is: under setting [1], 162.1 Å²; under setting [4], 161.4 Å²; under setting [2], 178 Å².
On the same counts, the results for `CCCCOC(=O)N(C)SN(C)C(=O)Oc1cccc2c1OC(C)(C)C2` [Furathiocarb] are 191.3 Å², 190.5 Å² and 195 Å².
For the compound `O=C1OCCN1N=Cc1ccc([N+](=O)[O-])o1` [Furazolidone], the “collision cross section in nitrogen” value under setting [3] is 150.8 Å².
As for `NS(=O)(=O)c1cc(C(=O)O)c(NCc2ccco2)cc1Cl` [Furosemide], under setting [3], the “collision cross section in nitrogen” value worked out at 173 Å².
The same measure, in the same setting: the figure for `CCCOC(=O)c1cc(O)c(O)c(O)c1` [Gallic acid n-propyl ester] is 146.5 Å².
Turning to `O=c1c(-c2ccc(O)cc2)coc2cc(O)cc(O)c12` [Genistein], the “collision cross section in nitrogen” value is, setting by setting: under setting [1], 160.3 Å²; under setting [4], 160.3 Å²; under setting [2], 171.3 Å²; under setting [3], 161.6 Å².
`CN(C)c1ccc(C(=C2C=CC(=[N+](C)C)C=C2)c2ccc(N(C)C)cc2)cc1` [Gentian Violet]: the “collision cross section in nitrogen” value reads like this: (ion source: APCI, ion mode: Positive, ion type: [M]+ (permanent cation)) 205 Å²; under setting [5], 205.8 Å².
In the case of `CC(=O)OC/C=C(\C)CCC=C(C)C` [Geranyl acetate], the “collision cross section in nitrogen” value under setting [3] is 151.5 Å².
Still for that read-out and setting: as for `C=C1C[C@]23C[C@@]1(O)CC[C@H]2[C@@]12C=C[C@H](O)[C@@](C)(C(=O)O1)[C@H]2[C@@H]3C(=O)O` [Gibberellic acid], the figure is 176.4 Å².
As to `COc1ccc(Cl)cc1C(=O)NCCc1ccc(S(=O)(=O)NC(=O)NC2CCCCC2)cc1` [Glybenclamide], the “collision cross section in nitrogen” value under setting [4] is 206.6 Å², the “collision cross section in nitrogen” value under setting [2] was determined as 217.6 Å² and the “collision cross section in nitrogen” value under setting [3] came out at 213.2 Å².
Turning to `CCCCCCCCCCCCCCCCCC(=O)OCC(O)CO` (stereo unspecified) [Glycerol 1-monostearate], under setting [2], the “collision cross section in nitrogen” value is 201.2 Å².
Same read-out and setting: as for `CCCCCCCC/C=C\CCCCCCCC(=O)OCC(O)CO` (stereo unspecified) [Glyceryl monooleate], the figure is 197.2 Å².
As to `CCCCCC[C@@H](O)C/C=C\CCCCCCCC(=O)OCC(O)CO` (stereo partly specified) [Glyceryl monoricinoleate], under setting [2], the “collision cross section in nitrogen” value was found to be 201.9 Å².
Turning to `C[N+](C)(C)CC1CO1` (stereo unspecified) [Glycidyl trimethylammonium chloride], under setting [5], the “collision cross section in nitrogen” value amounted to 120.7 Å².
Consider `CCCCCCCCCCCC(=O)N(C)CC(=O)O` [Glycine, N-methyl-N-(1-oxododecyl)-, sodium salt], for which the “collision cross section in nitrogen” value under setting [2] amounted to 175.8 Å² and the “collision cross section in nitrogen” value under setting [3] was found to be 169.5 Å².
On to `C[C@H](CCC(=O)NCC(=O)O)[C@H]1CC[C@H]2[C@@H]3[C@H](O)C[C@@H]4C[C@H](O)CC[C@]4(C)[C@H]3C[C@H](O)[C@]12C` [Glycocholic acid], for which the “collision cross section in nitrogen” value was determined as 201.7 Å² under setting [2] and 202.5 Å² under setting [3].
As for `CC1(C)[C@@H](O[C@H]2O[C@H](C(=O)O)[C@@H](O)[C@H](O)[C@H]2O[C@@H]2O[C@H](C(=O)O)[C@@H](O)[C@H](O)[C@H]2O)CC[C@]2(C)[C@H]3C(=O)C=C4[C@@H]5C[C@@](C)(C(=O)O)CC[C@]5(C)CC[C@@]4(C)[C@]3(C)CC[C@@H]12` [Glycyrrhizin], the “collision cross section in nitrogen” value runs as follows: under setting [4], 288.9 Å²; under setting [2], 296.2 Å²; under setting [3], 281.7 Å².
As for `CCCCCCC(CCCCCCCCCCC(=O)OCC(COC(C)=O)OC(C)=O)OC(C)=O` (stereo unspecified) [Grinstad Soft-N-Safe], the “collision cross section in nitrogen” value under setting [2] was 225.2 Å².
Take `COC1=CC(=O)C[C@@H](C)[C@]12Oc1c(Cl)c(OC)cc(OC)c1C2=O` [Griseofulvin]: the “collision cross section in nitrogen” value by setting is: under setting [1], 182 Å²; under setting [4], 181.6 Å²; under setting [2], 189.6 Å².
Turning to `COc1ccccc1OCC(O)CO` (stereo unspecified) [Guaifenesin], the “collision cross section in nitrogen” value under setting [2] worked out at 147.2 Å².
Turning to `Nc1nc2[nH]cnc2c(=O)[nH]1` [Guanine], under setting [4], the “collision cross section in nitrogen” value is given as 130.3 Å².
For the compound `O=[N+]([O-])c1cc(N(CCO)CCO)ccc1NCCO` [HC Blue 2], the “collision cross section in nitrogen” value under setting [1] worked out at 171.3 Å², the “collision cross section in nitrogen” value under setting [4] came to 171.1 Å² and the “collision cross section in nitrogen” value under setting [2] is given as 177.5 Å².
Turning to `Nc1ccc(NCCO)c([N+](=O)[O-])c1` [HC Red 3], the “collision cross section in nitrogen” value stood at 141.6 Å² under setting [1] and 142.2 Å² under setting [4].
Turning to `CCN(CC)C(=O)c1cc(S(=O)(=O)Cc2ccccc2)c(N2CCC(c3ccccc3)CC2)cc1N(CC)CCN(C)C` [HMR1171 trifluoroacetate (1:1)], the “collision cross section in nitrogen” value by setting is: under setting [1], 249.1 Å²; under setting [4], 249.1 Å²; under setting [2], 251.8 Å²; under setting [3], 250 Å².
As for `OC12N=C(c3ccccc3)SC1Cc1cc(Cl)ccc12` (stereo unspecified) [HMR1426], the “collision cross section in nitrogen” value is reported as 167.8 Å² under setting [1] and 167.9 Å² under setting [4].
In the case of `CC(C)(C)N(NC(=O)c1ccc(Cl)cc1)C(=O)c1ccccc1` [Halofenozide], the “collision cross section in nitrogen” value was determined as 188.3 Å² under setting [2] and 178.2 Å² under setting [3].
Turning to `O=C(CCCN1CCC(O)(c2ccc(Cl)cc2)CC1)c1ccc(F)cc1` [Haloperidol], the “collision cross section in nitrogen” value turned out to be 195.1 Å² under setting [1], 195.1 Å² under setting [4], 200.2 Å² under setting [2] and 190.2 Å² under setting [3].
With `COC(=O)[C@@H](C)Oc1ccc(Oc2ncc(C(F)(F)F)cc2Cl)cc1` [Haloxyfop-P-methyl], the “collision cross section in nitrogen” value runs as follows: under setting [4], 185.1 Å²; under setting [2], 186.4 Å².
As for `COC(=O)C(C)Oc1ccc(Oc2ncc(C(F)(F)F)cc2Cl)cc1` (stereo unspecified) [Haloxyfop-methyl], the “collision cross section in nitrogen” value is 184.4 Å² under setting [4] and 185.6 Å² under setting [2].
In the case of `CC(Oc1ccc(Oc2ncc(C(F)(F)F)cc2Cl)cc1)C(=O)O` (stereo unspecified) [Haloxyfop], the “collision cross section in nitrogen” value was determined as 180 Å² under setting [4] and 190 Å² under setting [3].
In the case of `CCCCCCC(=O)O` [Heptanoic acid], the “collision cross section in nitrogen” value under setting [3] is given as 137.3 Å².
For `CCCCCCCOC(C)=O` [Heptyl acetate], under setting [3], the “collision cross section in nitrogen” value stood at 146.8 Å².
On to `COCN(COC)c1nc(N(COC)COC)nc(N(COC)COC)n1` [Hexa(methoxymethyl)melamine], for which the “collision cross section in nitrogen” value under setting [2] stood at 194.1 Å².
